Experimental data published in patent publication US20240208994A1, “PLASMA KALLIKREIN INHIBITORS” (Merck Sharp & Dohme LLC, priority 2021, published 2024).

Tests used:
[1] = biological target: T1, Human plasma kallikrein (Homo sapiens, UniProt P03952); test: Plasma Kallikrein Assay; type: biochemical; conditions: purified Human plasma kallikrein 0.5 nM, substrate Acetyl-K-P-R-AFC, HEPES pH 7.4, fluorescence 405 Ex/510 Em; read-out: PKal IC50
T1 construct: yields a heavy chain (371 amino acids) and a light chain (248 amino acids); purchased Enzyme Research Laboratories
How it was run: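 Purified human plasma kallikrein (0.5 nM) with fluorogenic Acetyl-K-P-R-AFC at ≤0.2 Km in pH 7.4 HEPES with NaCl, CaCl2 and PEG 8000, after enzyme–inhibitor equilibration. Fluorescence read at 405/510 nm under linear conditions. IC50 from four-parameter fit; Ki by Cheng-Prusoff.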

[2] = biological target: human factor XIa (Homo sapiens, UniProt P03951); test: Factor XIa Assay; type: biochemical; conditions: human factor XIa 0.04 nM, 30 min pre-incubation at 25° C., substrate GPR-AFC, pH 7.4, 60 min incubation; read-out: FXIa IC50
Sequence of human factor XIa (P03951 388-625 limits assumed): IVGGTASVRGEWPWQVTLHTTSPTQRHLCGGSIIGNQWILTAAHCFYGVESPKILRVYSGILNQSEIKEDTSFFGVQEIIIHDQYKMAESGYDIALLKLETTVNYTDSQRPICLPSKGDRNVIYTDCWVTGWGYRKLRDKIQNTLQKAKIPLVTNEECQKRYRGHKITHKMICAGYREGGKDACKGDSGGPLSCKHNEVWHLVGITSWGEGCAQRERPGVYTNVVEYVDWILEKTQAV
Sequence of human factor XIa (P03951 19-387 partner limits assumed): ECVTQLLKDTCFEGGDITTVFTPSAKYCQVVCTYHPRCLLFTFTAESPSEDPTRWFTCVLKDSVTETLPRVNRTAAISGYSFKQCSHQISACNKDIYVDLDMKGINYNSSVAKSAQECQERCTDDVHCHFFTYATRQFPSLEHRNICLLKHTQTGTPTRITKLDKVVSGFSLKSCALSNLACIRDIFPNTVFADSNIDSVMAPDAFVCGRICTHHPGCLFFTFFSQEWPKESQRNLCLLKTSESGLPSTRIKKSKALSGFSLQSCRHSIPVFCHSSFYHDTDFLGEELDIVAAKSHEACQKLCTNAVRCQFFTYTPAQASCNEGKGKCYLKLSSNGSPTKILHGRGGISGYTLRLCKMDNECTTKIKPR

T1 sequence (P03952 391-638 limits assumed): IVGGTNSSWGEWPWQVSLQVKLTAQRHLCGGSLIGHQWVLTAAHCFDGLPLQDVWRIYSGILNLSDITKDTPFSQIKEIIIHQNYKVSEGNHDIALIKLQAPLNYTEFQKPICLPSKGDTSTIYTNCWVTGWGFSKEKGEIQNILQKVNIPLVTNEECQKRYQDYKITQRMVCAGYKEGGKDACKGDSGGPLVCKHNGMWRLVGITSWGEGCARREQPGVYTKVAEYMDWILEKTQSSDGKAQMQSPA
T1 sequence (P03952 20-390 partner limits assumed): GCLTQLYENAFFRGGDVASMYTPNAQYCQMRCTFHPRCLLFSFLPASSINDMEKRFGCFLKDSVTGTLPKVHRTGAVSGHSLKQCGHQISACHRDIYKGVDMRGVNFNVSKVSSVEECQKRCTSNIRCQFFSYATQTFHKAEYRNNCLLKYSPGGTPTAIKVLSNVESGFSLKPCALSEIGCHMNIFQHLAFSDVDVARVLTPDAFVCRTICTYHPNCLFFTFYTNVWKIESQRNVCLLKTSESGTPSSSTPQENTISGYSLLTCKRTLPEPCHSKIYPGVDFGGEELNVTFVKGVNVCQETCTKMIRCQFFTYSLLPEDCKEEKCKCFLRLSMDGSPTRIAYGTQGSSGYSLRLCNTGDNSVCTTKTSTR

Row | SMILES | IC50 [1] [nM] | IC50 [2] [nM]
1 | Cn1ncc(-c2cc(N)n(CC(=O)N3CC[C@@]4(C3)OC(=O)Nc3ccc(Cl)c(F)c34)n2)c1C(F)(F)F [Example 49, (R)-1′-(2-(5-Amino-1′-methyl-5′-(trifluoromethyl)-1H,1′H-[3,4′-bipyrazol]-1-yl)acetyl)-6-chloro-5-fluorospiro[benzo[d][1,3]oxazine-4,3′-pyrrolidin]-2(1H)-one] | 1.4 | 184
2 | Nc1cc(C2CC(F)(F)C2)nn1CC(=O)N1CC[C@@]2(C1)OC(=O)Nc1ccc(Cl)c(F)c12 [Example 11, (R)-1′-(2-(5-Amino-3-(3,3-difluorocyclobutyl)-1H-pyrazol-1-yl)acetyl)-6-chloro-5-fluorospiro[benzo[d][1,3]oxazine-4,3′-pyrrolidin]-2(1H)-one] | 32.3 | 672
3 | CC1(C)CCc2c1nn(CC(=O)N1CC[C@@]3(C1)OC(=O)Nc1ccc(Cl)c(F)c13)c2N [Example 15, (R)-1′-(2-(3-Amino-6,6-dimethyl-5,6-dihydrocyclopenta[c]pyrazo1-2(4H)-yl)acetyl)-6-chloro-5-fluorospiro[benzo[d][1,3]oxazine-4,3′-pyrrolidin]-2(1H)-one] | 40.6 | 100
4 | Nc1cc(-c2cccc(F)c2)nn1CC(=O)N1CC[C@@]2(C1)OC(=O)Nc1ccc(Cl)c(F)c12 [Example 64, (R)-1′-(2-(5-Amino-3-(3-fluorophenyl)-1H-pyrazol-1-yl)acetyl)-6-chloro-5-fluorospiro[benzo[d] [1,3]oxazine-4,3′-pyrrolidin]-2(1H)-one] | 17 | 556

The remaining lines, values ahead:

Row | IC50 [1] [nM] | IC50 [2] [nM] | SMILES
5 | 3.2 | 187 | Nc1cc(-c2ccccc2Cl)nn1CC(=O)N1CC[C@@]2(C1)OC(=O)Nc1ccc(Cl)c(F)c12 [Example 43, (R)-1′-(2-(5-Amino-3-(2-chlorophenyl)-1H-pyrazol-1-yl)acetyl)-6-chloro-5-fluorospiro[benzo[d][1,3]oxazine-4,3′-pyrrolidin]-2(1H)-one]
6 | 5.7 | 430 | Nc1cc(-c2ccccc2I)nn1CC(=O)N1CC[C@@]2(C1)OC(=O)Nc1ccc(Cl)c(F)c12 [Example 58, (R)-1′-(2-(5-Amino-3-(2-iodophenyl)-1H-pyrazol-1-yl)acetyl)-6-chloro-5-fluorospiro[benzo[d][1,3]oxazine-4,3′-pyrrolidin]-2(1H)-one]
